Results from patent US4073888A, “Chlorine dioxide and quaternary ammonium salts as sterilizing agents” (priority 1975, dated 1978).
“Also recorded” adds a separate entry of the source.

How the values were obtained:
spores [1] = test: effectiveness of quaternary salts with chlorine dioxide; type: cell-based; settings: for effectiveness with chlorine dioxide: used with chlorine dioxide for the purposes of the invention; for results with chlorine dioxide in the testing embodiments: employed with chlorine dioxide
Bacillus subtilis [2] = test: Comparative Sporicidal Test, didecyl dimethyl ammonium chloride alone; type: cell-based, Bacillus subtilis 19659; settings: ten minutes contact; for Number Positive, Tube 1 (original culture) / Number Positive, Tube 2 (subculture): of 10
Procedure: For further comparative purposes it was also decided to test the sporicidal activity of didecyl dimethyl ammonium chloride used alone and employing the bacteria and method described below.
Porcelain penicylinders (Fisher Scientific #7-907)
Incubation Time and Temperature
In the above Table 4, Tube 1 is the original culture and Tube 2 is the subculture of Tube 1.
The active ingredient in these tests was didecyl dimethyl ammonium chloride.
In the above Table 4, the identification of the 1% solution and 0.4% solution refers to the level of total quaternary compound being tested.

spores [3] = settings: cited from earlier work
[4] = cited from earlier work
[5] = solutions; cited from earlier work
Bacillus subtilis [6] = test: Comparative Sporicidal Test, chlorine dioxide alone; settings: dilutions 1:10 and 1:25

## CCCCCCCCCCCCCCCC[N+](C)(C)Cc1ccccc1.[Cl-] [hexadecyldimethyl benzyl ammonium chloride, reference compound]
Spores [1]
  effectiveness with chlorine dioxide: ineffective

## CCCCCCCCCCCC[N+](C)(C)CCCCCCCCCCCC.[Cl-] [Didodecyl dimethyl ammonium chloride]
Spores [1]
  results with chlorine dioxide in the testing embodiments: outstanding results
  effectiveness with chlorine dioxide: highly effective

## CCCCCCCCCC[N+](C)(C)CCCCCCCC.[Cl-] [Octyl-decyl dimethyl ammonium chloride]
Spores [1]
  results with chlorine dioxide in the testing embodiments: outstanding results

## CCCCCCCCCCCC(=O)OCCNC(=O)C[n+]1ccccc1 [lauric acid ester of colaminoformylmethyl pyridinium chloride, reference compound]
Spores [1]
  effectiveness with chlorine dioxide: ineffective

## CCCCCCCCCCCC[N+](C)(C)CCCCCCCC.[Cl-] [Octyl-dodecyl dimethyl ammonium chloride]
Spores [1]
  results with chlorine dioxide in the testing embodiments: outstanding results
  effectiveness with chlorine dioxide: highly effective

## CCCCCCCCCCCCCCCC[N+](C)(C)C.[Br-] [cetyl trimethyl ammonium bromide, reference compound]
Spores [1]
  effectiveness with chlorine dioxide: ineffective

## CCCCCCCCCC[N+](C)(C)CCCCCCCCCC.[Cl-] [Didecyl Dimethyl Ammonium Chloride, didecyl dimethyl ammonium chloride]
Bacillus subtilis [2]; 0.4% solution
  Number Positive, Tube 1 (original culture): 0
  Number Positive, Tube 2 (subculture): 10
Bacillus subtilis [2]; 1% solution
  Number Positive, Tube 1 (original culture): 0
  Number Positive, Tube 2 (subculture): 9
Bacillus subtilis [2]; used alone, 1% and 0.4%
  sporicidal activity (conclusion): poor sporicidal activity; also recorded: only a static effect and not a cidal effect; also recorded: not sporicidal
Spores [1]
  results with chlorine dioxide in the testing embodiments: outstanding results
  effectiveness with chlorine dioxide: highly effective

## O=CCCCC=O [glutaraldehyde]
Spores [3]; commercial sporicidal composition
  time required to kill spores: 10 h
[4]
  shelf-life after activation: 14 days

## [O][Cl+][O-] [chlorine dioxide]
Spores [3]; alone in aqueous solutions
  sporicidal activity: not sporicidal
[5]
  bactericidal, fungicidal, taste and odor control properties: excellent bactericidal, fungicidal, and taste and odor control properties
Bacillus subtilis [6]
  outcome before 21 day observation period: failed completely
Bacillus subtilis [6]; 2-12 hours contact
  sporicidal activity (conclusion): does not show satisfactory sporicidal activity; also recorded: failure as a sporicide
Bacillus subtilis [6]; twelve hours contact
  sporicidal test outcome: not passed
